This note sets out measurements from patent publication US9067949B2, “Benzofuro[3,2-c] pyridines and related analogs as serotonin sub-type 6 (5-HT6) modulators for the treatment of obesity, metabolic syndrome, cognition and schizophrenia” (Albany Molecular Research, Inc., priority 2011, dated 2015).

SMILES strings stand for the structures. Structures can show the parent of a compound that is named as a salt. Where two headings read alike, the source gives them in different places.

In the assay the target is human 5-HT6 receptor (Homo sapiens (Human), UniProt P50406). Briefly: 5-HT6 radioligand binding assay (SPA format, [N-methyl-3H]-LSD). The following applies: human 5-HT6 receptor membranes, 10 nM [N-methyl-3H]-LSD, Ki by Cheng-Prusoff, read-out: human 5HT6 Ki. The protocol:
The relative affinities of the various compounds for the 5-HT6 receptor were measured in a radioligand binding assay, using a scintillation proximity assay (SPA) format.
For binding analysis vs. the human receptor, samples were incubated in 50 mM Tris-HCl, pH 7.5, 5 mM MgCl2, 1 mM EDTA (4% DMSO final) with 10 nM [N-methyl-^3H]-LSD (Perkin Elmer), 2.5 ng of human 5-HT6 receptor membranes (Millipore) and 50 μg SPA beads (PVT-PEI-WGA, GE Healthcare) per well in a final volume of 0.2 mL. […] Binding reactions were performed in PicoPlate96 microtiter plates (Perkin Elmer) by consecutively adding 50 μL of each competing compound or buffer, SPA beads, radioligand and 5-HT6 receptor membranes. After an overnight incubation at room temperature on a Nutator mixer, plates were centrifuged for 15 min at 1,500 rpm, followed by incubation in the dark for 10 min. […] Total binding control contained compound dilution buffer only; nonspecific binding is determined in the presence of 100 μM 5-hydroxytryptamine. Specific binding was determined by subtracting nonspecific binding from total binding.
All experiments were performed in duplicate using ten concentrations of competing ligand, with clozapine included as a control in every run. IC50 values were determined from specific binding data using XLfit4.1 curve fitting software from IDBS Ltd. The inhibition constant (Ki) was calculated using the Cheng-Prusoff equation: (Ki=IC50/(1+(L/KD)), where L=concentration of radioligand in the assay, and KD=affinity of the radioligand for the receptor.

Sequence of human 5-HT6 receptor (P50406 whole entry): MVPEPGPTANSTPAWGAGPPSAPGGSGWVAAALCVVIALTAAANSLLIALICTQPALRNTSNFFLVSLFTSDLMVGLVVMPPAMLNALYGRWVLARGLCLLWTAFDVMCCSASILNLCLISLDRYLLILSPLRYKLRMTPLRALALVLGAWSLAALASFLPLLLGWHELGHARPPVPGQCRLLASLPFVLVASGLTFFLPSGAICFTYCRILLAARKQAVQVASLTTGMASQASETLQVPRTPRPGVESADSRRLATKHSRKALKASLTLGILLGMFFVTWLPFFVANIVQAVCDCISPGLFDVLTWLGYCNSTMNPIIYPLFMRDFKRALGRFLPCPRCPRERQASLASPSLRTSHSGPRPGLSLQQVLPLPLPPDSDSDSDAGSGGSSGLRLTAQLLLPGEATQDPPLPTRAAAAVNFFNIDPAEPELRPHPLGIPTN

By Ki is commonly meant the equilibrium dissociation constant of an inhibitor or competing ligand from its target. As for `CC1Cc2oc3c(Cl)cc(S(=O)(=O)c4ccccc4)cc3c2CN1` (single isomer, unassigned; (+)) [Example 83b, (+) 6-chloro-3-methyl-8-(phenylsulfonyl)-1,2,3,4-tetrahydrobenzofuro[3,2-c]pyridine hydrochloride], the Ki (hydrochloride) turned out to be 16 nM.
`N#Cc1cc(S(=O)(=O)c2ccccc2)cc2c3c(oc12)CCNC3` [Example 210]: the inhibition constant Ki stood at 4.2 nM.
In the case of `COc1cc(S(=O)(=O)c2cccc(F)c2)cc2c3c(oc12)CCNC3` [Example 166], the inhibitory constant (Ki) came out at 0.2 nM.
On to `Cc1cc(S(=O)(=O)c2cccc(F)c2)cc2c3c(oc12)CCNC3` [Example 200], for which the Ki came out at 0.5 nM.
`C[C@H](O)c1cccc(S(=O)(=O)c2cc(Cl)c3oc4c(c3c2)CNCC4)c1` [Example 138]: the Ki was 5.1 nM.
Same read-out and setting: as for `COc1cc(S(=O)(=O)c2cccs2)cc2c3c(oc12)CCNC3` [Example 192], the figure is 0.17 nM; as for `O=S(=O)(c1ccccc1)c1cc(Cl)c2oc3c(c2c1)CC(O)CC3` (racemic) [Example 97, 6-chloro-8-(phenylsulfonyl)-1,2,3,4-tetrahydrodibenzo[b,d]furan-2-ol], 1.7 nM; as for `O=S(=O)(c1ccc2c(c1)CCOC2)c1cc(Cl)c2oc3c(c2c1)CNCC3` [Example 106], 2.5 nM.
For the molecule `COc1cc([S+]([O-])c2ccccc2)cc2c3c(oc12)CCNC3` (centres unmarked) [Example 233], the inhibition constant (Ki) is 2.4 nM.
In the case of `COc1cc(S(=O)(=O)c2cc(F)cc(Cl)c2)cc2c3c(oc12)CCNC3` [Example 188], the Ki was determined as 0.11 nM.
Regarding `COc1cc(S(=O)(=O)c2ccc3c(c2)CCOC3)cc2c3c(oc12)CCNC3` [Example 158], the Ki amounted to 0.48 nM.
`O=S(=O)(c1ccc(OC(F)F)cc1)c1cc(Cl)c2oc3c(c2c1)CNCC3` [Example 113]: the Ki was determined as 2.2 nM.
Same read-out and setting: as for `CC(CO)N1CCc2oc3c(Cl)cc(S(=O)(=O)c4ccccc4)cc3c2C1` (centres unmarked) [Example 152], the figure is 3.4 nM.
On to `O=S(=O)(c1ccc2c(c1)COCC2)c1cc(Cl)c2oc3c(c2c1)CNCC3` [Example 105], for which the Ki came to 13 nM.
As to `CC(C)(O)CN1CCc2oc3c(Cl)cc(S(=O)(=O)c4ccccc4)cc3c2C1` [Example 147], the inhibition constant (Ki) came out at 1.2 nM.
The same measure, in the same setting: as for `COc1cccc(S(=O)(=O)c2cc(Cl)c3oc4c(c3c2)CNCC4)c1` [Example 123], the figure is 1.2 nM.
For the molecule `O=S(=O)(c1cc(Cl)cc(Cl)c1)c1cc(Cl)c2oc3c(c2c1)CNCC3` [Example 130], the Ki was found to be 6 nM.
Same read-out and setting: as for `CN(C)C(=O)c1cc(S(=O)(=O)c2ccccc2)cc2c3c(oc12)CCNC3` [Example 223], the figure is 1110 nM; as for `CN(C)C(=O)C1NCCc2oc3c(Cl)cc(S(=O)(=O)c4ccccc4)cc3c21` (centres unmarked) [Example 88, 6-chloro-N,N-dimethyl-8-(phenylsulfonyl)-1,2,3,4-tetrahydrobenzofuro[3,2-c]pyridine-1-carboxamide hydrochloride], 252 nM.
On to `Cc1cc(S(=O)(=O)c2ccccc2)cc2c3c(oc12)CCNC3` [Example 53, 6-Methyl-8-(phenylsulfonyl)-1,2,3,4-tetrahydrobenzofuro[3,2-c]pyridine hydrochloride], for which the Ki was found to be 0.22 nM.
Take `O=S(=O)(c1cccc(-n2cccn2)c1)c1cc(Cl)c2oc3c(c2c1)CNCC3` [Example 103]: the inhibition constant Ki came out at 2.2 nM.
Consider `O=S(=O)(c1cncc(Cl)c1)c1cc(Cl)c2oc3c(c2c1)CNCC3` [Example 119], for which the inhibitory constant (Ki) was 20 nM.
Consider `O=S(=O)(c1cc(F)cc(F)c1)c1cc(Cl)c2oc3c(c2c1)CNCC3` [Example 129], for which the inhibition constant (Ki) was 9.9 nM.
`C[C@H](O)c1ccc(S(=O)(=O)c2cc(Cl)c3oc4c(c3c2)CNCC4)cc1` [Example 140]: the Ki was found to be 16 nM.
On the same count and under the same terms, the result for `C[C@@H](O)c1cccc(S(=O)(=O)c2cc(Cl)c3oc4c(c3c2)CNCC4)c1` [Example 139] reads 2.7 nM; that for `Cc1cc(S(=O)(=O)c2ccc(F)c(F)c2)cc2c3c(oc12)CCNC3` [Example 199], 2 nM; that for `O=S(=O)(c1cccc(CO)c1)c1cc(Cl)c2oc3c(c2c1)CNCC3` [Example 110], 4.4 nM.
Consider `O=S(=O)(c1ccccc1)c1cc(OCCO)c2oc3c(c2c1)CNCC3` [Example 217], for which the inhibitory constant (Ki) is 1.6 nM.
Regarding `COc1cc(S(=O)(=O)c2cn(C)c3ccccc23)cc2c3c(oc12)CCNC3` [Example 183], the inhibitory constant (Ki) came out at 0.16 nM.
With `O=S(=O)(c1ccccc1)c1cc(Cl)c2oc3c(c2c1)C(CF)NCC3` (centres unmarked) [Example 87, 6-chloro-1-fluoromethyl-8-phenylsulfonyl-1,2,3,4-tetrahydrobenzofuro[3,2-c]pyridine hydrochloride], the Ki came to 4 nM.
Take `COc1cc(S(=O)(=O)c2ccc([C@H](C)O)cc2)cc2c3c(oc12)CCNC3` [Example 171]: the Ki came out at 8.6 nM.
As to `COc1cc(S(=O)(=O)c2ccc(F)cc2)cc2c3c(oc12)CCNC3` [Example 169], the Ki amounted to 0.75 nM.
Regarding `CC(O)CN1CCc2oc3c(Cl)cc(S(=O)(=O)c4ccccc4)cc3c2C1` (centres unmarked) [Example 151], the Ki is 1.7 nM.
With `Cc1cc(S(=O)(=O)c2ccccc2F)cc2c3c(oc12)CCNC3` [Example 194], the inhibition constant (Ki) was determined as 0.39 nM.
Consider `O=S(=O)(c1ccccc1)c1cc(OC(F)F)c2oc3c(c2c1)CNCC3` [Example 216], for which the Ki was 0.33 nM.
Same read-out and setting: as for `O=S(=O)(c1cccc(C2CCOC2)c1)c1cc(Cl)c2oc3c(c2c1)CNCC3` (centres unmarked) [Example 71, 6-chloro-8-(3-(tetrahydrofuran-3-yl)phenylsulfonyl)-1,2,3,4-tetrahydrobenzofuro[3,2-c]pyridine hydrochloride], the figure is 2 nM; as for `O=S(=O)(c1ccc(-n2cccn2)cc1)c1cc(Cl)c2oc3c(c2c1)CNCC3` [Example 104], 26 nM.
`O=S(=O)(c1cc(Cl)c2oc3c(c2c1)CNCC3)c1csc2ccccc12` [Example 133]: the Ki is 0.26 nM.
For `CC(O)c1cccc(S(=O)(=O)c2cc(Cl)c3oc4c(c3c2)CNCC4)c1` (centres unmarked) [Example 136], the inhibitory constant (Ki) was determined as 3 nM.
`COc1cc(S(=O)(=O)c2ccccc2)cc2c3c(oc12)CCC(O)C3` (centres unmarked) [Example 238]: the inhibition constant (Ki) came out at 0.59 nM.
`O=S(=O)(c1ccccc1)c1cc(Cl)c2oc3c(c2c1)CN(CCC(F)(F)F)CC3` [Example 114]: the Ki came out at 19 nM.
For `Cc1cc(S(=O)(=O)c2cc(F)cc(F)c2)cc2c3c(oc12)CCNC3` [Example 197], the Ki was 1.3 nM.
Still for that read-out and setting: the result for `Cn1ncc2cc(S(=O)(=O)c3cc(Cl)c4oc5c(c4c3)CNCC5)ccc21` [Example 124] reads 37 nM.
The same measure, in the same setting: the result for `O=S(=O)(c1ccccc1)c1cc(Cl)c2oc3c(c2c1)CN(CCO)CC3` [Example 146] reads 1.6 nM; that for `COc1cc(S(=O)(=O)c2ccc(C(C)(C)O)cc2)cc2c3c(oc12)CCNC3` [Example 176], 0.74 nM; that for `O=S(=O)(c1cccc(C(O)C(F)(F)F)c1)c1cc(Cl)c2oc3c(c2c1)CNCC3` (centres unmarked) [Example 132], 3.3 nM.
For the molecule `Cn1cc(S(=O)(=O)c2cc(C#N)c3oc4c(c3c2)CNCC4)c2ccccc21` [Example 211], the Ki worked out at 0.4 nM.
Still for that read-out and setting: the result for `CC(=O)N1CCc2oc3c(Cl)cc(S(=O)(=O)c4ccccc4)cc3c2C1` [Example 239] reads 9.5 nM.
Still for that read-out and setting: as for `COc1cc(S(=O)(=O)c2ccc3c(c2)COC3)cc2c3c(oc12)CCNC3` [Example 193], the figure is 0.8 nM.
Turning to `COCc1ccc(S(=O)(=O)c2cc(Cl)c3oc4c(c3c2)CNCC4)cc1` [Example 109], the Ki was 14 nM.
For the molecule `N#Cc1cc(S(=O)(=O)c2cccc(Cl)c2)cc2c3c(oc12)CCNC3` [Example 213], the Ki was 1.9 nM.
For the molecule `NC(=O)c1cc(S(=O)(=O)c2ccccc2)cc2c3c(oc12)CCNC3` [Example 222], the Ki came out at 307 nM.
In the case of `O=S(=O)(c1ccccc1)c1cc(OC(F)(F)F)c2oc3c(c2c1)CNCC3` [Example 214], the inhibitory constant (Ki) came out at 0.88 nM.
Regarding `CS(=O)(=O)N1CCc2oc3c(Cl)cc(S(=O)(=O)c4ccccc4)cc3c2C1` [Example 144], the Ki was found to be 492 nM.
As for `O=S(=O)(c1ccccc1)c1cc(CO)c2oc3c(c2c1)CNCC3` [Example 74, (8-(phenylsulfonyl)-1,2,3,4-tetrahydrobenzofuro[3,2-c]pyridin-6-yl)methanol hydrochloride], the inhibition constant (Ki) came out at 13 nM.
As to `O=S(=O)(c1ccc(CO)cc1)c1cc(Cl)c2oc3c(c2c1)CNCC3` [Example 72, (4-((6-chloro-1,2,3,4-tetrahydrobenzofuro[3,2-c]pyridin-8-yl)sulfonyl)phenyl)methanol hydrochloride], the Ki is 12 nM.
For `O=S(=O)(c1cccc(F)c1)c1ccc2c3c(oc2c1)CC1CCC3N1` (centres unmarked) [Example 66, 3-(3-Fluorophenyl)sulfonyl-6,7,8,9,10-pentahydro-7,10-epiminocyclohepta[b]benzofuran hydrochloride], the Ki amounted to 533 nM.
In the case of `COc1cc(S(=O)(=O)c2ccc(OC(F)(F)F)cc2)cc2c3c(oc12)CCNC3` [Example 165], the Ki was 1.9 nM.
Take `COc1cc(S(=O)(=O)c2cccc(C(F)(F)F)c2)cc2c3c(oc12)CCNC3` [Example 167]: the Ki stood at 0.13 nM.
